# Publication PMC6269118, “Populene D Analogues: Design, Concise Synthesis and Antiproliferative Activity” (Molecules, 2012)
# Where two headings read alike, the source gives them in different places.
# Experiments:
# U251 (glioma) cells = experiment: Antiproliferative sulforhodamine B assay, U251; type: cell-based; settings: Homo sapiens, U-251, 48 h treatment, SRB; for IC100: read-out: Total growth inhibition (TGI)
# Description: (§1) The in vitro antiproliferative activity of populene analogues 2a–e and 3a–e was investigated toward nine human tumor cell lines [CNS (U251), breast (MCF-7), ovarian (NCI-ADR/RES, OVCAR-03), renal (786-0), non-small cell lung (NCI-H460), prostate (PC-3), colon (HT-29) and leukemia (k-562)] and one human normal cell line (HaCat, human keratinocytes). The populene D analogues were tested at concentrations between 0.25 and 250 µg/mL and doxorubicin (DOX 0.025–25 µg/mL) was used as positive control. […] To analyze the GI50 parameter, mean log GI50 was calculated by conversion of the GI50 values for each tumor cell line tested (not including the normal cell line HaCat) against a test compound and then these values were averaged.
# (§2) Stock cultures were grown in 5 mL of RPMI 1640 (GIBCO BRL, Life Technologies) supplemented with 5% of fetal bovine serum. Penicillin:streptomycin (1,000 μg mL^−1:1,000 UI mL^‑1, 1 mL L^−1) was added to the experimental cultures.
# (§3) Afterwards cells were fixed with 50% trichloroacetic acid and cell proliferation determined by spectrophotometric quantification (540 nm) of cellular protein content using sulforhodamine B assay[20]. Doxorubicin (0.025–25 mg/mL) was used as positive control. Three measurements were obtained at the beginning of incubation (time zero, T0) and 48 h post-incubation for compound-free (C) and tested (T) cells. Cell proliferation was determined according to the equation 100 × [(T − T0)/C − T0], for T0 < T ≤ C, and 100 × [(T − T0)/T0], for T ≤ T0 and a concentration-response curve for each cell line was plotted and, from these curves, GI50 (concentration causing 50% growth inhibition) and TGI (concentration that promotes total growth inhibition) were determined by means of non-linear regression analysis using software ORIGIN 8.0 (OriginLab Corporation) [20, 21] The average activity (mean of log GI50) of each compound tested was also determined using MS Excel software.
# MCF-7 (breast) cells = experiment: Antiproliferative sulforhodamine B assay, MCF-7; type: cell-based; settings: Homo sapiens, MCF7, MCF-7 mammary, 48 h treatment, SRB; for IC100: read-out: Total growth inhibition (TGI)
# Description: as §1, §2, §3
# [1] = tested on: NCI-ADR/RES (ovarian expressing phenotype multiple drugs resistance) cells; experiment: Antiproliferative sulforhodamine B assay, NCI-ADR/RES; type: cell-based; settings: Homo sapiens, NCI-ADR/RES drug resistant ovary, 48 h treatment, SRB; for IC100: read-out: Total growth inhibition (TGI)
# Description: as §1, §2, §3
# 786-0 (renal) cells = experiment: Antiproliferative sulforhodamine B assay, 786-0; type: cell-based; settings: Homo sapiens, 786-0 kidney, 48 h treatment, SRB; for IC100: read-out: Total growth inhibition (TGI)
# Description: as §1, §2, §3
# PC-3 (prostate) cells = experiment: Antiproliferative sulforhodamine B assay, PC-3; type: cell-based; settings: Homo sapiens, Prostate cell, 48 h treatment, SRB; for IC100: read-out: Total growth inhibition (TGI)
# Description: (§4) The populene D analogues were tested at concentrations between 0.25 and 250 µg/mL and doxorubicin (DOX 0.025–25 µg/mL) was used as positive control. […] To analyze the GI50 parameter, mean log GI50 was calculated by conversion of the GI50 values for each tumor cell line tested (not including the normal cell line HaCat) against a test compound and then these values were averaged.
# as §2, §3
# OVCAR-3 (ovarian) cells = experiment: Antiproliferative sulforhodamine B assay, OVCAR-3; type: cell-based; settings: Homo sapiens, OVCAR-3 ovary, 48 h treatment, SRB; for IC100: read-out: Total growth inhibition (TGI)
# Description: as §4, §2, §3
# HT-29 (colon) cells = experiment: Antiproliferative sulforhodamine B assay, HT-29; type: cell-based; settings: Homo sapiens, 48 h treatment, SRB; for IC100: read-out: Total growth inhibition (TGI)
# Description: as §4, §2, §3
# K-562 (leukemia) cells = experiment: Antiproliferative sulforhodamine B assay, K-562; type: cell-based; settings: Homo sapiens, K562, 48 h treatment, SRB; for IC100: read-out: Total growth inhibition (TGI)
# Description: as §1
# (§5) Cells in 96-well plates (100 μL cells/well) were exposed to various concentrations of compounds 2a–d and 3a–d diluted in DMSO (0.25, 2.5, 25 and 250 μg/mL) at 37 °C, 5% of CO2 for 48 h. […] Afterwards cells were fixed with 50% trichloroacetic acid and cell proliferation determined by spectrophotometric quantification (540 nm) of cellular protein content using sulforhodamine B assay[20]. Doxorubicin (0.025–25 mg/mL) was used as positive control. Three measurements were obtained at the beginning of incubation (time zero, T0) and 48 h post-incubation for compound-free (C) and tested (T) cells. Cell proliferation was determined according to the equation 100 × [(T − T0)/C − T0], for T0 < T ≤ C, and 100 × [(T − T0)/T0], for T ≤ T0 and a concentration-response curve for each cell line was plotted and, from these curves, GI50 (concentration causing 50% growth inhibition) and TGI (concentration that promotes total growth inhibition) were determined by means of non-linear regression analysis using software ORIGIN 8.0 (OriginLab Corporation) [20, 21] The average activity (mean of log GI50) of each compound tested was also determined using MS Excel software.
# [2] = Antiproliferative sulforhodamine B assay, HaCat normal cell line; type: cell-based, human; settings: human; HaCat normal immortalized keratinocytes, 48 h treatment, SRB
# Description: as §1, §2, §3
# [3] = tested on: HaCat (immortalized human keratinocytes); experiment: as above; type: cell-based; settings: 48 h treatment, SRB
# Description: as §1, §2, §3
# [4] = tested on: nine human tumor cell lines; experiment: Average antiproliferative activity over the tumor cell line panel (NCI criteria); type: cell-based; settings: for GI50: Homo sapiens, 48 h; for Cytostatic activity classified in words by NCI criteria on mean logGI50: weak 1.1-1.5, moderate 0-1.1, potent <0, inactive >1.5
# Description: as §1, §5
# [5] = tested on: NCI-H460 (lung, non-small cells) cells; experiment: Antiproliferative sulforhodamine B assay, NCI-H460; settings: for GI50: Homo sapiens, NCI-H460, 48 h; for Total growth inhibition (TGI): NCI-H460 lung, 48 h treatment, SRB
# Description: as §4, §2, §3
# [6] = average of logGI50 (GI50 in μg/mL) over tumor cell lines tested, not including HaCat, read-out: Mean logGI50 (converted)
# [7] = class symbol by NCI's criteria on mean logGI50, read-out: Mean logGI50 activity class (NCI's criteria)
Structure (SMILES),GI50 (U251 (glioma) cells) [µg/mL],GI50 (MCF-7 (breast) cells) [µg/mL],GI50 (786-0 (renal) cells) [µg/mL],GI50 (PC-3 (prostate) cells) [µg/mL],GI50 (OVCAR-3 (ovarian) cells) [µg/mL],GI50 (HT-29 (colon) cells) [µg/mL],GI50 (K-562 (leukemia) cells) [µg/mL],IC100 (U251 (glioma) cells) [µg/mL],IC100 (MCF-7 (breast) cells) [µg/mL],GI50 [1] [µg/mL],IC100 [1] [µg/mL],IC100 (786-0 (renal) cells) [µg/mL],IC100 (PC-3 (prostate) cells) [µg/mL],IC100 (OVCAR-3 (ovarian) cells) [µg/mL],IC100 (HT-29 (colon) cells) [µg/mL],IC100 (K-562 (leukemia) cells) [µg/mL],GI50 at 48 h [2] [µg/mL],Total growth inhibition (TGI) [3] [µg/mL],"GI50 [4, 6] [µg/mL]","GI50 [4, 7] [µg/mL]",also measured
"COc1ccc2c(c1)C1=C(CC2)C(C)(C)OCC1C (centres unmarked) [2c, 2,4,5,6-Tetrahydro-9-methoxy-1,4,4-trimethyl-1H-benzo[f]isochromene]",25,25,25,25,25,25,25,40,45.3,25,66.3,36.1,69.2,67,41.8,128,25,32.0,16.2,12.6 to 31.6,
"CC1COC(C)(C)C2=C1c1cc(O)c(O)cc1CC2 (centres unmarked) [3e, 1,4,4-Trimethyl-1,4,5,6-tetrahydro-2H-benzo[f]isochromene-8,9-diol]",19.6,5.5,5.6,,3.9,19.5,,28.4,41.6,5.7,> 250,19.4,,34.4,39,,4.2,>250,8.13,1 to 12.6,Cytostatic activity classified in words by NCI criteria on mean logGI50 [4]: moderate; melting point: 122 to 123 °C; GI50 [5]: 17.4 µg/mL; Total growth inhibition (TGI) [5]: >250 µg/mL
"COc1cc2c(cc1OC)C1=C(CC2)C(C)(C)OCC1C (centres unmarked) [2d, 2,4,5,6-Tetrahydro-8,9-dimethoxy-1,4,4-trimethyl-1H-benzo[f]isochromene]",> 250,38.8,45.8,71.4,193,23.1,84.6,> 250,> 250,101,> 250,> 250,> 250,> 250,> 250,> 250,> 250,>250,> 50.1,> 31.6,Cytostatic activity classified in words by NCI criteria on mean logGI50 [4]: inactive; melting point: 115 to 117 °C
"CC1COC(C)(C)C2=C1c1cccc(O)c1CC2 (centres unmarked) [3a, 1,4,4-Trimethyl-1,4,5,6-tetrahydro-2H-benzo[f]isochromen-7-ol]",> 250,> 250,37.3,> 250,> 250,> 250,> 250,> 250,> 250,> 250,> 250,> 250,> 250,> 250,> 250,> 250,> 250,>250,> 209,> 31.6,Cytostatic activity classified in words by NCI criteria on mean logGI50 [4]: inactive; melting point: 139.2 to 140.3 °C; GI50 [5]: > 250 µg/mL; Total growth inhibition (TGI) [5]: >250 µg/mL

# Continued, in another order:
GI50 (U251 (glioma) cells) [µg/mL],GI50 (MCF-7 (breast) cells) [µg/mL],GI50 (786-0 (renal) cells) [µg/mL],GI50 (PC-3 (prostate) cells) [µg/mL],GI50 (OVCAR-3 (ovarian) cells) [µg/mL],GI50 (HT-29 (colon) cells) [µg/mL],GI50 (K-562 (leukemia) cells) [µg/mL],Structure (SMILES),IC100 (U251 (glioma) cells) [µg/mL],IC100 (MCF-7 (breast) cells) [µg/mL],GI50 [1] [µg/mL],IC100 [1] [µg/mL],IC100 (786-0 (renal) cells) [µg/mL],IC100 (PC-3 (prostate) cells) [µg/mL],IC100 (OVCAR-3 (ovarian) cells) [µg/mL],IC100 (HT-29 (colon) cells) [µg/mL],IC100 (K-562 (leukemia) cells) [µg/mL],GI50 at 48 h [2] [µg/mL],Total growth inhibition (TGI) [3] [µg/mL],"GI50 [4, 6] [µg/mL]","GI50 [4, 7] [µg/mL]",also measured
25,25,25,25,25,25,3.1,"COc1cccc2c1CCC1=C2C(C)COC1(C)C (centres unmarked) [2a, 4,5,6-Tetrahydro-7-methoxy-1,4,4-trimethyl-1H-benzo[f]isochromene]",52,51.3,25,83.5,50.6,64.6,52.3,39.1,> 250,25,66.9,14.8,12.6 to 31.6,melting point: 65 to 67 °C
23.1,24.6,24.1,,24.3,6,,"COc1cc2c(cc1O)C1=C(CC2)C(C)(C)OCC1C (centres unmarked) [3d, 8-Methoxy-1,4,4-trimethyl-1,4,5,6-tetrahydro-2H-benzo[f]isochromen-9-ol]",45.9,58.2,5.2,37.6,47.8,,69.9,32.3,,4.2,160.7,14.5,12.6 to 31.6,Cytostatic activity classified in words by NCI criteria on mean logGI50 [4]: weak; melting point: 141 to 143 °C; GI50 [5]: 45.1 µg/mL; Total growth inhibition (TGI) [5]: >250 µg/mL
24.6,23.2,25.5,27,24.5,6.6,9.6,"COc1ccc2c(c1)CCC1=C2C(C)COC1(C)C (centres unmarked) [2b, 2,4,5,6-Tetrahydro-8-methoxy-1,4,4-trimethyl-1H-benzo[f]isochromene]",53.5,46.9,26.8,104,44,41.4,56.2,33,> 250,26.1,54.4,15.1,12.6 to 31.6,melting point: 89.5 to 91.3 °C
27.8,24.7,24.6,24.5,1.8,22.9,8.7,"CC1COC(C)(C)C2=C1c1cc(O)ccc1CC2 (centres unmarked) [3c, 1,4,4-Trimethyl-1,4,5,6-tetrahydro-2H-benzo[f]isochromen-9-ol]",67.9,45,25,200,43,51.8,31.5,53.3,39.2,3.6,>250,14.1,12.6 to 31.6,Cytostatic activity classified in words by NCI criteria on mean logGI50 [4]: weak; melting point: 160 to 162 °C; GI50 [5]: 24.2 µg/mL; Total growth inhibition (TGI) [5]: 45.9 µg/mL
0.062,0.21,0.04,0.27,0.26,0.22,0.4,"COc1cccc2c1C(=O)c1c(O)c3c(c(O)c1C2=O)C[C@@](O)(C(=O)CO)C[C@@H]3O[C@H]1C[C@H](N)[C@H](O)[C@H](C)O1 [Doxorubicine, doxorubicin, reference compound]",1.1,8.8,1.3,25,0.62,4.4,3.9,25,25,0.23,0.67,0.166,< 1,GI50 [5]: < 0.025 µg/mL; Total growth inhibition (TGI) [5]: 0.025 µg/mL
46.3,108,36.8,> 250,> 250,78.4,41.2,"CC1COC(C)(C)C2=C1c1ccc(O)cc1CC2 (centres unmarked) [3b, 1,4,4-Trimethyl-1,4,5,6-tetrahydro-2H-benzo[f]isochromen-8-ol]",> 250,> 250,> 250,> 250,> 250,> 250,> 250,> 250,> 250,> 250,>250,> 100,> 31.6,Cytostatic activity classified in words by NCI criteria on mean logGI50 [4]: inactive; melting point: 199 to 201 °C; GI50 [5]: 41.4 µg/mL; Total growth inhibition (TGI) [5]: >250 µg/mL
